What all share (type): biochemical
The target in one assay is PKC theta kinase (Homo sapiens, UniProt Q04759). Put plainly: PKC Theta I (coupled enzyme assay, absorbance at 340 nm). Particulars: 240 μM ATP, 18 nM PKC theta, absorbance read out. The method, then: An assay buffer solution was prepared which consisted of 100 mM HEPES (pH 7.5), 10 mM MgCl2, 25 mM NaCl, 0.1 mM EDTA and 0.01% Brij. […] To 60 μL of this enzyme buffer, in a 384 well plate, was added 2 μL of VRT stock solution in DMSO. The mixture was allowed to equilibrate for 10 mins at 30° C. […] Ki values were calculated from initial rate data by non-linear regression using the Prism software package (Prism 4.0a, Graphpad Software, San Diego, Calif.).
Chain of PKC theta kinase (Q04759 whole entry): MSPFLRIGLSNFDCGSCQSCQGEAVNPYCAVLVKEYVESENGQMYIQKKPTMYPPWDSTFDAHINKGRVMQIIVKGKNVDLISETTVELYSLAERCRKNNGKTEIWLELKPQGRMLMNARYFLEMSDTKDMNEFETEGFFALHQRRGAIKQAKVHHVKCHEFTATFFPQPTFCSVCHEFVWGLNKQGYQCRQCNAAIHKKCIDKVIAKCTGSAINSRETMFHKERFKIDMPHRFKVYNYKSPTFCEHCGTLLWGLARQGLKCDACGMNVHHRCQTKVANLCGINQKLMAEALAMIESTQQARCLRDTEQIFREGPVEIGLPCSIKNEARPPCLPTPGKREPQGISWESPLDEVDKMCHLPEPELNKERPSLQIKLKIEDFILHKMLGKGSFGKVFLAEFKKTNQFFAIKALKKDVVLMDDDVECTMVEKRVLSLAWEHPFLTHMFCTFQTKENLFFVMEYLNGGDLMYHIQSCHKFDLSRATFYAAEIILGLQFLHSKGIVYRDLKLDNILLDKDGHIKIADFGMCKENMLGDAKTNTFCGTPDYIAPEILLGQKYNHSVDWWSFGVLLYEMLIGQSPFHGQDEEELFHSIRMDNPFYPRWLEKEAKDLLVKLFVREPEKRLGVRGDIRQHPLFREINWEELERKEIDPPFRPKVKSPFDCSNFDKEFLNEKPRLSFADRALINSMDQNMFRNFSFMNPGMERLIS

The next assay deals with PKC alpha kinase (Homo sapiens, UniProt P17252). Briefly: PKC Alpha (coupled enzyme assay). Particulars: 130 μM ATP, 4.5 nM PKC alpha. The method, then:
An assay buffer solution was prepared which consisted of 100 mM HEPES (pH 7.5), 10 mM MgCl2, 25 mM NaCl, 0.1 mM EDTA, 100 μM CaCl2 and 0.01% Brij. […] To 16 μL of this enzyme buffer, in a 384 well plate, was added 1 μL of VRT stock solution in DMSO. The mixture was allowed to equilibrate for 10 mins at 30° C. […] Ki values were calculated from initial rate data by non-linear regression using the Prism software package (Prism 4.0a, Graphpad Software, San Diego, Calif.).

A further assay addresses PKC delta kinase (Homo sapiens, UniProt Q05655). Briefly: PKC Delta (coupled enzyme assay). Particulars: 150 μM ATP, 46 nM PKC delta; read-out: Ki PKC delta. The method, then: An assay buffer solution was prepared which consisted of 100 mM HEPES (pH 7.5), 10 mM MgCl2, 25 mM NaCl, 0.1 mM EDTA and 0.01% Brij. […] To 16 μL of this enzyme buffer, in a 384 well plate, was added 1 μL of VRT stock solution in DMSO. The mixture was allowed to equilibrate for 10 mins at 30° C. […] Ki values were calculated from initial rate data by non-linear regression using the Prism software package (Prism 4.0a, Graphpad Software, San Diego, Calif.).

Chain of PKC delta kinase (Q05655 whole entry): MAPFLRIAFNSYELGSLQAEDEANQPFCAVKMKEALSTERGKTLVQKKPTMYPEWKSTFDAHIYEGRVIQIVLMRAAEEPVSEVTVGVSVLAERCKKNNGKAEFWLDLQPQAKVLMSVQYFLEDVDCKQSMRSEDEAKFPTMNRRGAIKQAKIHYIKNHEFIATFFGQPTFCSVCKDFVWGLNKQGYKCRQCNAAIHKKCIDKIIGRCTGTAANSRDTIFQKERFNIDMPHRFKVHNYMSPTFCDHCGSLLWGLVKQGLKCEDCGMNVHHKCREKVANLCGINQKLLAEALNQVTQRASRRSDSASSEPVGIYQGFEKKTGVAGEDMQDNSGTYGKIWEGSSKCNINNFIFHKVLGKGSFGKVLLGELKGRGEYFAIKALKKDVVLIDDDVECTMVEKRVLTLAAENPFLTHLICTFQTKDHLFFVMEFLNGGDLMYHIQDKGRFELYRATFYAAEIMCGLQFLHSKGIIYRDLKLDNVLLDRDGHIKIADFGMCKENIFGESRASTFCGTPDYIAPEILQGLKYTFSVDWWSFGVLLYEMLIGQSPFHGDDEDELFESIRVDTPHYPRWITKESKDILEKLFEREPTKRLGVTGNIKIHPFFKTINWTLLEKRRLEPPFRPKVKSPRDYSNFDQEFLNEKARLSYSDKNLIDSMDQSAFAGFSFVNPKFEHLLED

Consider `N#CCC(=O)N1CCCN(c2cccc(C(=O)c3cccnc3N)n2)CC1` [compound 22], for which the Ki at PKC theta kinase was 500 to 2800 nM.

In turn, `CC(C)(C)CC(=O)N1CCCN(c2cccc(C(=O)c3cccnc3N)n2)CC1` [compound 26] showed a Ki at PKC theta kinase of 500 to 2800 nM. Turning to `Nc1ncccc1C(=O)c1cccc(N2CCCN(C(=O)Cc3ccccc3Cl)CC2)n1` [compound 29], the Ki at PKC theta kinase lay within 500 to 2800 nM. Molecule `Nc1ncc(Br)cc1C(=O)c1cccc(N2CCCN(C(=O)Cc3ccccc3)CC2)n1` [compound 72] showed a Ki at PKC theta kinase of 500 to 2800 nM. As for `CC(C)(C)C(=O)N1CCCN(c2cccc(C(=O)c3cc(Br)cnc3N)n2)CC1` [compound 73], the Ki at PKC theta kinase fell in the range of 500 to 2800 nM. `Cc1ccccc1C(=O)N1CCCN(c2cccc(C(=O)c3cccnc3N)n2)CC1` [compound 89]: the Ki on PKC alpha kinase is 500 to 2800 nM; at PKC delta kinase, greater than 2800 nM. For `Cc1ccc(N2CCCNCC2)nc1C(=O)c1cccnc1N` [compound 209] the same measures were 500 to 2800 nM and 500 to 2800 nM. Regarding `CC(C)(C)[C@H](N)COc1ccc(C(F)(F)F)c(C(=O)c2cccnc2N)n1` [compound 422], the results for the Ki on PKC alpha kinase and at PKC delta kinase were greater than 2800 nM and 500 to 2800 nM, respectively.

On to `C=C(F)c1ccc(N2CCN[C@@H](CC(C)C)C2)nc1C(=O)c1cccnc1N` [compound 424], for which, on PKC alpha kinase, the Ki is less than 50 nM.

On to `CC(C)(CN)CNc1ccc(C(F)(F)F)c(C(=O)c2cccnc2N)n1` [compound 425], for which the values for the Ki on PKC alpha kinase and on PKC delta kinase were 500 to 2800 nM and 50 to 500 nM, respectively.

As to `NCC1CCCC(CNc2ccc(C(F)(F)F)c(C(=O)c3cccnc3N)n2)C1` (stereo not drawn) [compound 429], the Ki at PKC alpha kinase was greater than 2800 nM; at PKC delta kinase it was 50 to 500 nM.

For `NCC(CNc1ccc(C(F)(F)F)c(C(=O)c2cccnc2N)n1)c1ccccc1` (stereo not drawn) [compound 431], the Ki on PKC alpha kinase is less than 50 nM. In the case of `Nc1ncccc1C(=O)c1nc(OCC(N)C2CCOCC2)ccc1C(F)(F)F` (stereo not drawn) [compound 433], the Ki on PKC alpha kinase and on PKC delta kinase was greater than 2800 nM each time. At PKC alpha kinase, `CC(C)C[C@H]1CN(c2ccc(-c3ccccc3F)c(C(=O)c3cccnc3N)n2)CCN1` [compound 435] gave a Ki of less than 50 nM. On to `C=Cc1ccc(N2CCN[C@H](c3ccccc3)C2)nc1C(=O)c1cccnc1N` [compound 445], for which the Ki on PKC alpha kinase and at PKC delta kinase was 500 to 2800 nM throughout.

Turning to `Nc1ncccc1C(=O)c1nc(N2CCN[C@H](c3ccccc3)C2)ccc1C(F)(F)F` [compound 447], the Ki on PKC alpha kinase and on PKC delta kinase was 500 to 2800 nM in each case.

Turning to `CC(C)[C@H]1CN(c2ccc(C(F)(F)F)c(C(=O)c3cccnc3N)n2)C[C@H](c2ccccc2)N1` [compound 450], the Ki at PKC delta kinase is 50 to 500 nM. With `NCC1CCC(CNc2ccc(C(F)(F)F)c(C(=O)c3cccnc3N)n2)CC1` (stereo not drawn) [compound 451], the Ki at PKC alpha kinase and at PKC delta kinase was greater than 2800 nM throughout. `CC(N)(CNc1ccc(C(F)(F)F)c(C(=O)c2cccnc2N)n1)Cc1ccccc1` (stereo not drawn) [compound 452]: the Ki is 500 to 2800 nM at PKC alpha kinase and 50 to 500 nM on PKC delta kinase.

In the case of `COCC1CN(c2ccc(C(F)(F)F)c(C(=O)c3cccnc3N)n2)CCN1` (stereo not drawn) [compound 455], at PKC delta kinase, the Ki lay in the range of 500 to 2800 nM. Turning to `CC(C)(C)C1CN(c2ccc(C(F)(F)F)c(C(=O)c3cccnc3N)n2)CCN1` (stereo not drawn) [compound 456], the Ki on PKC alpha kinase and on PKC delta kinase was greater than 2800 nM in each case. In turn, `C=C(F)c1ccc(N2CCNC(c3ccccc3)C2)nc1C(=O)c1cccnc1N` (stereo not drawn) [compound 457] had a Ki at PKC alpha kinase of less than 50 nM. Regarding `CC(C)(O)CC1CN(c2ccc(C(F)(F)F)c(C(=O)c3cccnc3N)n2)CCN1` (stereo not drawn) [compound 459], at PKC delta kinase, the Ki lay within 50 to 500 nM. Consider `Nc1ncccc1C(=O)c1nc(NCC2CCC(N)CC2)ccc1C(F)(F)F` (stereo not drawn) [compound 460], for which the values for the Ki on PKC alpha kinase and on PKC delta kinase were greater than 2800 nM and 500 to 2800 nM, respectively. In the case of `CC(C)C(O)C1CN(c2ccc(C(F)(F)F)c(C(=O)c3cccnc3N)n2)CCN1` (stereo not drawn) [compound 461], at PKC delta kinase, the Ki lay within 50 to 500 nM.

`CC[C@@](CN)(CNc1ccc(C(F)(F)F)c(C(=O)c2cccnc2N)n1)c1ccccc1` [compound 462]: the Ki on PKC delta kinase lay in the range of 50 to 500 nM. As to `CC[C@](CN)(CNc1ccc(C(F)(F)F)c(C(=O)c2cccnc2N)n1)c1ccccc1` [compound 463], the Ki at PKC alpha kinase is less than 50 nM. Take `CC(C)(F)CC1CN(c2ccc(C(F)(F)F)c(C(=O)c3cccnc3N)n2)CCN1` (stereo not drawn) [compound 464]: the Ki at PKC alpha kinase was 500 to 2800 nM; at PKC delta kinase, 50 to 500 nM. `CC#Cc1ccc(N2CCN[C@H](c3ccccc3)C2)nc1C(=O)c1cccnc1N` [compound 465]: the values for the Ki at PKC alpha kinase and on PKC delta kinase were 500 to 2800 nM and 50 to 500 nM, respectively. `Nc1ncccc1C(=O)c1nc(N2CC3CCC(C2)N3)ccc1C(F)(F)F` [compound 466]: at PKC delta kinase, the Ki is 50 to 500 nM. For the molecule `Cc1ccc(-c2ccc(N3CCNC(c4ccccc4)C3)nc2C(=O)c2cccnc2N)o1` (stereo not drawn) [compound 469], the Ki is 500 to 2800 nM at PKC alpha kinase and 50 to 500 nM on PKC delta kinase.

For `Cc1ccc(-c2ccc(N3CCNCC3)nc2C(=O)c2cccnc2N)o1` [compound 470], the Ki was greater than 2800 nM on PKC alpha kinase and 50 to 500 nM on PKC delta kinase. Take `CC(C)C[C@H]1CN(c2ccc(C(F)(F)F)c(C(=O)c3cccnc3N)n2)CC2(CCC2)N1` [compound 471]: the Ki at PKC delta kinase is 50 to 500 nM. Still for that read-out and setting: next, `CC[C@H]1CN(c2ccc(C(F)(F)F)c(C(=O)c3cccnc3N)n2)C[C@H](C(C)C)N1` [compound 473]: 50 to 500 nM. With `C=C(F)c1ccc(N2CCN[C@H](c3ccccc3)C2)nc1C(=O)c1cccnc1N` [compound 474], the Ki on PKC delta kinase lay in the range of 50 to 500 nM.

On to `C=C(F)c1ccc(N2CCN[C@@H](c3ccccc3)C2)nc1C(=O)c1cccnc1N` [compound 475], for which the Ki on PKC alpha kinase was less than 50 nM. On the same count and under the same terms, the same measure for `C=C(F)c1ccc(N2CCNC(c3cccc(Cl)c3)C2)nc1C(=O)c1cccnc1N` (stereo not drawn) [compound 476]: less than 50 nM. On to `Nc1ncccc1C(=O)c1nc(N2CCNC(C(F)(F)F)C2)ccc1C(F)(F)F` (stereo not drawn) [compound 477], for which the Ki is greater than 2800 nM on PKC alpha kinase and 50 to 500 nM on PKC delta kinase. As to `C[C@H]1CN(c2ccc(C(F)(F)F)c(C(=O)c3cccnc3N)n2)CCN1` [compound 478], the Ki on PKC delta kinase fell in the range of 50 to 500 nM. The same measure, in the same setting: the same measure for `CC(C)C[C@H]1CN(c2ccc(C(F)(F)F)c(C(=O)c3cc(Br)cnc3N)n2)CCN1` [compound 479]: 50 to 500 nM; for `CC(C)C[C@H]1CN(c2ccc(C(F)(F)F)c(C(=O)c3cc(Cl)cnc3N)n2)CCN1` [compound 480]: 50 to 500 nM. As to `CC(C)C[C@H]1CN(c2ccc(C(F)(F)F)c(C(=O)c3cccnc3N)n2)C[C@H](C)N1` [compound 483], the Ki on PKC alpha kinase and at PKC delta kinase was 500 to 2800 nM in each case. Consider `C[C@@H]1CNCCN1c1ccc(C(F)(F)F)c(C(=O)c2cccnc2N)n1` [compound 484], for which the Ki on PKC delta kinase lay in the range of 50 to 500 nM. Same read-out and setting: the same measure for `CCc1cnc(N)c(C(=O)c2nc(N3CCN[C@@H](CC(C)C)C3)ccc2C(F)(F)F)c1` [compound 486]: 50 to 500 nM. For `C=Cc1cnc(N)c(C(=O)c2nc(N3CCN[C@@H](CC(C)C)C3)ccc2C(F)(F)F)c1` [compound 487], the figures for the Ki on PKC alpha kinase and on PKC delta kinase were less than 50 nM and 50 to 500 nM, respectively. On to `CC[C@@H]1CN(c2ccc(C(F)(F)F)c(C(=O)c3cccnc3N)n2)C[C@H](CC(C)C)N1` [compound 488], for which the Ki on PKC alpha kinase was less than 50 nM.

Take `CC(C)C[C@H]1CN(c2ccc(C(F)(F)F)c(C(=O)c3cccnc3N)n2)C[C@@H](C)N1` [compound 490]: at PKC alpha kinase, the Ki is less than 50 nM.

Consider `Nc1ncccc1C(=O)c1nc(N2CCNC(CC(F)(F)F)C2)ccc1C(F)(F)F` (stereo not drawn) [compound 491], for which the values for the Ki on PKC alpha kinase and on PKC delta kinase were greater than 2800 nM and 500 to 2800 nM, respectively. As for `CCC[C@@H]1CN(c2ccc(C(F)(F)F)c(C(=O)c3cccnc3N)n2)C[C@H](CC(C)C)N1` [compound 494], on PKC alpha kinase, the Ki was less than 50 nM. As for `Nc1ncc(Cl)cc1C(=O)c1nc(N2CCNCC2)ccc1C(F)(F)F` [compound 495], the results for the Ki at PKC alpha kinase and on PKC delta kinase were less than 50 nM and 50 to 500 nM, respectively.

Consider `Nc1ncc(Cl)cc1C(=O)c1nc(N2CCNC(c3ccccc3)C2)ccc1C(F)(F)F` (stereo not drawn) [compound 496], for which, on PKC delta kinase, the Ki fell in the range of 50 to 500 nM. In turn, `Nc1ncccc1C(=O)c1nc(N2CCNC(c3cccc(Cl)c3)C2)ccc1C(F)(F)F` (stereo not drawn) [compound 497] showed a Ki at PKC alpha kinase of less than 50 nM. Turning to `Cc1cnc(N)c(C(=O)c2nc(N3CCN[C@@H](CC(C)C)C3)ccc2C(F)(F)F)c1` [compound 499], the Ki on PKC delta kinase lay within 50 to 500 nM.

In the case of `C=C(F)c1ccc(N2CCNC(C(F)(F)F)C2)nc1C(=O)c1cccnc1N` (stereo not drawn) [compound 504], at PKC alpha kinase, the Ki was 500 to 2800 nM. In the case of `Cc1sc(N2CCN[C@@H](CC(C)C)C2)nc1C(=O)c1cccnc1N` [compound 505], on PKC delta kinase, the Ki is 50 to 500 nM. Take `C=C(F)c1ccc(N2CCN[C@@H](CC(C)(C)F)C2)nc1C(=O)c1cccnc1N` [compound 506]: the results for the Ki on PKC alpha kinase and on PKC delta kinase were 500 to 2800 nM and 50 to 500 nM, respectively.

(Values after patent publication US8741931B2, “Kinase inhibitors” (priority 2007, dated 2014).)
